Test results reported in the NIST ThermoML archive (doi:10.1007/s10765-008-0549-z).
± gives the expanded uncertainty stated by the source.

Settings: Liquid, Hot wire method

COCCOC [1,2-dimethoxyethane]
Settings | thermal conductivity [W/m/K]
245.46 K, 104.6 kPa | 0.1648 ± 0.0034
245.69 K, 30045 kPa | 0.1742 ± 0.0035
245.95 K, 9806.6 kPa | 0.1669 ± 0.0034
245.96 K, 30103 kPa | 0.1746 ± 0.0036
246.06 K, 5008.2 kPa | 0.1665 ± 0.0034
246.06 K, 20070 kPa | 0.1711 ± 0.0035
246.24 K, 20007 kPa | 0.1706 ± 0.0035
246.49 K, 105.9 kPa | 0.165 ± 0.0034
246.52 K, 5028.5 kPa | 0.1666 ± 0.0034
246.69 K, 10018 kPa | 0.1683 ± 0.0034
246.75 K, 10005 kPa | 0.1682 ± 0.0034
246.79 K, 5010 kPa | 0.1662 ± 0.0034
247.52 K, 103.3 kPa | 0.1647 ± 0.0034
255.91 K, 20016 kPa | 0.1675 ± 0.0034
256.02 K, 102.5 kPa | 0.1606 ± 0.0033
256.02 K, 30007 kPa | 0.1706 ± 0.0035
256.1 K, 10040 kPa | 0.1643 ± 0.0033
256.21 K, 5070.2 kPa | 0.1623 ± 0.0033
256.75 K, 30014 kPa | 0.1707 ± 0.0035
256.81 K, 20002 kPa | 0.1679 ± 0.0034
256.83 K, 10040 kPa | 0.1642 ± 0.0033
256.9 K, 5065.5 kPa | 0.1625 ± 0.0033
256.95 K, 102.5 kPa | 0.161 ± 0.0033
257.48 K, 5064.5 kPa | 0.1625 ± 0.0033
257.56 K, 20022 kPa | 0.1674 ± 0.0034
257.58 K, 102.3 kPa | 0.1607 ± 0.0033
257.62 K, 10048 kPa | 0.1643 ± 0.0033
257.66 K, 30002 kPa | 0.1708 ± 0.0035
266.15 K, 10003 kPa | 0.1617 ± 0.0033
266.18 K, 5017.9 kPa | 0.1601 ± 0.0033
266.19 K, 30009 kPa | 0.1688 ± 0.0034
266.26 K, 101.3 kPa | 0.158 ± 0.0032
266.26 K, 20003 kPa | 0.1654 ± 0.0034
266.32 K, 10011 kPa | 0.1618 ± 0.0033
266.41 K, 100.9 kPa | 0.158 ± 0.0032
266.58 K, 5037.6 kPa | 0.1598 ± 0.0033
266.87 K, 20013 kPa | 0.165 ± 0.0034
266.95 K, 30000 kPa | 0.1684 ± 0.0034
267.11 K, 30013 kPa | 0.1683 ± 0.0034
267.35 K, 20003 kPa | 0.1653 ± 0.0034
267.37 K, 10021 kPa | 0.1617 ± 0.0033
267.5 K, 101.1 kPa | 0.1578 ± 0.0032
267.84 K, 5027 kPa | 0.1598 ± 0.0033
275.68 K, 10024 kPa | 0.1585 ± 0.0032
275.72 K, 5003.3 kPa | 0.1567 ± 0.0032
276.21 K, 20024 kPa | 0.1624 ± 0.0033
276.34 K, 101.8 kPa | 0.1547 ± 0.0032
276.45 K, 30012 kPa | 0.1657 ± 0.0034
276.49 K, 100.9 kPa | 0.1543 ± 0.0032
276.52 K, 20015 kPa | 0.1623 ± 0.0033
276.94 K, 5006 kPa | 0.1567 ± 0.0032
277.11 K, 30008 kPa | 0.1654 ± 0.0034
277.29 K, 10005 kPa | 0.1584 ± 0.0032
277.31 K, 30012 kPa | 0.1653 ± 0.0034
277.53 K, 20015 kPa | 0.1623 ± 0.0033
277.55 K, 5005.5 kPa | 0.1565 ± 0.0032
277.95 K, 10000 kPa | 0.1585 ± 0.0032
278.62 K, 101.1 kPa | 0.1539 ± 0.0031
285.8 K, 10010 kPa | 0.1551 ± 0.0032
286.18 K, 5012.4 kPa | 0.1531 ± 0.0031
286.23 K, 101.5 kPa | 0.1512 ± 0.0031
286.4 K, 30001 kPa | 0.1626 ± 0.0033
286.51 K, 20013 kPa | 0.159 ± 0.0032
286.67 K, 30009 kPa | 0.1625 ± 0.0033
286.8 K, 20011 kPa | 0.159 ± 0.0032
287.06 K, 101.3 kPa | 0.1509 ± 0.0031
287.07 K, 30006 kPa | 0.1621 ± 0.0033
287.28 K, 10001 kPa | 0.1549 ± 0.0032
287.46 K, 5010.5 kPa | 0.153 ± 0.0031
287.68 K, 20035 kPa | 0.1586 ± 0.0032
288.14 K, 10002 kPa | 0.1545 ± 0.0031
288.62 K, 100.9 kPa | 0.1504 ± 0.0031
288.65 K, 5009.1 kPa | 0.1525 ± 0.0031
294.52 K, 10026 kPa | 0.1516 ± 0.0031
294.53 K, 20008 kPa | 0.1566 ± 0.0032
294.55 K, 30012 kPa | 0.1589 ± 0.0033
294.64 K, 10027 kPa | 0.1527 ± 0.0031
294.68 K, 106.8 kPa | 0.1466 ± 0.003
294.68 K, 20036 kPa | 0.1566 ± 0.0032
294.75 K, 104.2 kPa | 0.1463 ± 0.003
294.83 K, 5021.1 kPa | 0.15 ± 0.0031
294.85 K, 10037 kPa | 0.1514 ± 0.0031
294.89 K, 30004 kPa | 0.1609 ± 0.0033
294.98 K, 5020.1 kPa | 0.1495 ± 0.003
295 K, 30018 kPa | 0.1595 ± 0.0032
295.07 K, 5014 kPa | 0.149 ± 0.003
295.11 K, 20026 kPa | 0.1557 ± 0.0032
295.24 K, 20010 kPa | 0.1569 ± 0.0032
295.28 K, 30016 kPa | 0.1598 ± 0.0033
295.32 K, 30006 kPa | 0.16 ± 0.0033
295.36 K, 101.9 kPa | 0.1467 ± 0.003
295.36 K, 20006 kPa | 0.1558 ± 0.0032
295.37 K, 10024 kPa | 0.1515 ± 0.0031
295.38 K, 104.3 kPa | 0.1474 ± 0.003
295.83 K, 10044 kPa | 0.1522 ± 0.0031
296 K, 5027.1 kPa | 0.1498 ± 0.0031
314.6 K, 104.5 kPa | 0.1394 ± 0.0029
314.65 K, 105.6 kPa | 0.1386 ± 0.0029
314.79 K, 30008 kPa | 0.1522 ± 0.0031
314.83 K, 20003 kPa | 0.1491 ± 0.003
314.84 K, 5010.3 kPa | 0.1415 ± 0.0029
314.87 K, 10003 kPa | 0.1443 ± 0.0029
314.9 K, 107.1 kPa | 0.1402 ± 0.0029
314.95 K, 20016 kPa | 0.1476 ± 0.003
315.06 K, 10017 kPa | 0.144 ± 0.0029
315.14 K, 30010 kPa | 0.1529 ± 0.0031
315.17 K, 10013 kPa | 0.1447 ± 0.0029
315.23 K, 5018.6 kPa | 0.1424 ± 0.0029
315.26 K, 30008 kPa | 0.1519 ± 0.0031
315.27 K, 105.4 kPa | 0.1395 ± 0.0028
315.3 K, 20008 kPa | 0.1484 ± 0.003
315.31 K, 20001 kPa | 0.1483 ± 0.003
315.42 K, 10012 kPa | 0.1445 ± 0.0029
315.46 K, 5010.3 kPa | 0.1419 ± 0.0029
315.51 K, 100.6 kPa | 0.1391 ± 0.0028
334.53 K, 10006 kPa | 0.1361 ± 0.0028
334.58 K, 102.1 kPa | 0.132 ± 0.0027
334.58 K, 5005.9 kPa | 0.1342 ± 0.0027
334.65 K, 5011.8 kPa | 0.1347 ± 0.0027
334.69 K, 90 kPa | 0.132 ± 0.0027
334.76 K, 10004 kPa | 0.1366 ± 0.0028
334.94 K, 10015 kPa | 0.1373 ± 0.0028
334.98 K, 5008.9 kPa | 0.1344 ± 0.0027
335.06 K, 101.6 kPa | 0.1322 ± 0.0027
335.31 K, 10008 kPa | 0.1374 ± 0.0028
335.39 K, 5011.5 kPa | 0.1347 ± 0.0027
335.53 K, 105.6 kPa | 0.1314 ± 0.0027
335.59 K, 10015 kPa | 0.1366 ± 0.0028
335.96 K, 5018 kPa | 0.1343 ± 0.0027
336.14 K, 105.6 kPa | 0.1319 ± 0.0027

Cc1ccccc1 [toluene]
Settings | thermal conductivity [W/m/K]
274.65 K | 0.1387 ± 0.0028
275.4 K | 0.1382 ± 0.0028
275.95 K | 0.1384 ± 0.0028
276.31 K | 0.138 ± 0.0028
287.33 K | 0.1345 ± 0.0028
288.72 K | 0.1336 ± 0.0027
289.65 K | 0.1335 ± 0.0027
294.45 K | 0.1318 ± 0.0027
294.69 K | 0.1318 ± 0.0027
295.08 K | 0.1321 ± 0.0027
295.47 K | 0.1314 ± 0.0027
295.79 K | 0.132 ± 0.0027
297.45 K | 0.1318 ± 0.0027
298.6 K | 0.1313 ± 0.0027
300.43 K | 0.1303 ± 0.0027
307.66 K | 0.1287 ± 0.0026
308.62 K | 0.1283 ± 0.0026
310.22 K | 0.1274 ± 0.0026
314.69 K | 0.1261 ± 0.0026
314.74 K | 0.1264 ± 0.0026
315.55 K | 0.1253 ± 0.0026
315.85 K | 0.1254 ± 0.0026
316.7 K | 0.1251 ± 0.0026
317.94 K | 0.1251 ± 0.0026
319.32 K | 0.1245 ± 0.0026
319.96 K | 0.1245 ± 0.0026
327.65 K | 0.1225 ± 0.0025
329.5 K | 0.1214 ± 0.0025
330.77 K | 0.1209 ± 0.0025
338.39 K | 0.1188 ± 0.0024
339.77 K | 0.1181 ± 0.0024
340.62 K | 0.1181 ± 0.0024
355.63 K | 0.114 ± 0.0023
355.95 K | 0.114 ± 0.0023
357.02 K | 0.1137 ± 0.0023
375.26 K | 0.1086 ± 0.0022
375.71 K | 0.1087 ± 0.0022
